Here are results for four compounds from patent US20220177538A1, “CO-AGONISTS AT GLP-1 AND GIP RECEPTORS SUITABLE FOR ORAL DELIVERY” (Novo Nordisk A/S, priority 2020, published 2022).

Data set [1] addresses T1, human GIP receptor (Homo sapiens, UniProt P48546).
T1 construct: expressed in transfected cells; host or cells: BHK (parent line BHKTS13), clone BHK CRE luc2P hGIPR
T1 sequence (P48546 22-466): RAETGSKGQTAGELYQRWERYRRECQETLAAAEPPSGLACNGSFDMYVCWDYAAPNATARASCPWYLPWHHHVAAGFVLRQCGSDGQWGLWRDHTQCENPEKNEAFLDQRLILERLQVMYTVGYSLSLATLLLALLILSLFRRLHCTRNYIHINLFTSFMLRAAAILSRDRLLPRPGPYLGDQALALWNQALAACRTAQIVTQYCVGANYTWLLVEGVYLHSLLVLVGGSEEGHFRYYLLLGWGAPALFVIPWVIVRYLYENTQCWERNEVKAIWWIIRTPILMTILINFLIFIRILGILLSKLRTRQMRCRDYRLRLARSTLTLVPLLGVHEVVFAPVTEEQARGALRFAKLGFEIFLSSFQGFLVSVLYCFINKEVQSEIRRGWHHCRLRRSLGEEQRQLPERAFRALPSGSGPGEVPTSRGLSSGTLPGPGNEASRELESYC
Description: In vitro functional potency, CRE luciferase reporter, whole BHK cells (hGIPR). The class given is cell-based. The following applies: BHK CRE luc2P hGIPR cells. The procedure, abridged:
(§1)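 BHK CRE luc2P cells stably expressing hGIPR or hGLP-1R were seeded at 5000 cells/well overnight. They were treated 3 h at 37° C with a 12-point, 3.5-fold compound series in buffer with or without HSA, and luciferase luminescence was read. Values come from log(agonist)-response regression, averaging at least two replicates.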
In general terms: A reporter such as luciferase makes a cellular process visible.

Data set [2] deals with human GLP-1 receptor (Homo sapiens, UniProt P43220). Description: In vitro functional potency, CRE luciferase reporter, whole BHK cells (hGLP-1R). The class given is cell-based. More on the design: expressed in transfected cells; host or cells: BHK (parent line BHKTS13), clone BHK CRE luc2P hGLP-1R. The following applies: BHK CRE luc2P hGLP-1R cells. The procedure, abridged:
as §1

Data set [3] in a line: Pharmacokinetic study in dogs after oral dosing of tablets with SNAC. The format is in vivo, Beagle dogs. The following applies: for Tmax / half-life: male, Beagle. In a few lines:
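Male beagle dogs (9-17 kg), fasted, received a single oral tablet with 100-300 mg SNAC and 3-4 mg test substance, groups of 6-8.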

[4] abbreviates: 0% HSA, read-out: hGIPR, CRE Luc 0% HSA EC50.
Where [5] appears, read: hGIPR, CRE Luc 1% HSA EC50, 1% HSA.
Setting [6] is: 0% HSA, read-out: hGLP-1R, CRE Luc 0% HSA EC50.
[7] abbreviates: hGLP-1R, CRE Luc 1% HSA EC50, 1% HSA.

Read-outs that look alike come from different tables or passages of the source. Marks after values point to notes of the source that are not given here. Starred links: 1 amine or outer side, 2 acyl side, 3 side chain; linkers in the order of their positions; H or OH if unused. Non-standard residues stand in square brackets, D forms with d. Residues, ends and D or L forms follow the SMILES beside them. Groups on a side chain read outwards from the residue. *: point of attachment. C18 diacid = O=C(O)CCCCCCCCCCCCCCCCC(=O)*; γGlu = O=C(O)[C@H](CCC(=O)[*:2])N[*:1]; εLys = N[C@@H](CCCCN[*:1])C(=O)[*:2]; AEEA = NCCOCCOCC(=O)O; Aib = CC(C)(N)C(=O)O

Chain of human GLP-1 receptor (P43220 24-463): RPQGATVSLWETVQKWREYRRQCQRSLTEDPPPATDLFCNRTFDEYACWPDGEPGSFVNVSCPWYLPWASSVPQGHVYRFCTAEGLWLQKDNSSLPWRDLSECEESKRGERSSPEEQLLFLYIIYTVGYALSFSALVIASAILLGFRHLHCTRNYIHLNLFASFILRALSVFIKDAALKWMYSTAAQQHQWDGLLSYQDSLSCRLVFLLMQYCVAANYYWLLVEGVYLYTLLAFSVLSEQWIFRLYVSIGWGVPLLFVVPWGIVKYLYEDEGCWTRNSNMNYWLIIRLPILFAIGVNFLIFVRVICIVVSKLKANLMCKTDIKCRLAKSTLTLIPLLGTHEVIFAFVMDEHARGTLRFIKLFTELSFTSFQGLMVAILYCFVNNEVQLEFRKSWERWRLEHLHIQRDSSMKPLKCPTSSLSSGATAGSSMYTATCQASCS

With `CC[C@H](C)[C@H](NC(=O)[C@H](Cc1ccccc1)NC(=O)[C@H](CCC(=O)O)NC(=O)[C@H](Cc1c[nH]cn1)NC(=O)[C@H](C)NC(=O)[C@H](C)NC(=O)[C@H](CCC(N)=O)NC(=O)[C@H](CCCCNC(=O)[C@@H](N)CCCCNC(=O)[C@@H](N)CCCCNC(=O)CC[C@H](NC(=O)CCCCCCCCCCCCCCCCC(=O)O)C(=O)O)NC(=O)[C@H](CCC(=O)O)NC(=O)[C@H](CC(C)C)NC(=O)[C@H](CC(C)C)NC(=O)[C@@H](NC(=O)[C@H](CO)NC(=O)[C@H](Cc1ccc(O)cc1)NC(=O)[C@H](CC(=O)O)NC(=O)[C@H](CO)NC(=O)[C@@H](NC(=O)[C@H](Cc1ccccc1)NC(=O)[C@@H](NC(=O)CNC(=O)[C@H](CCC(=O)O)NC(=O)C(C)(C)NC(=O)[C@@H](N)Cc1ccc(O)cc1)[C@@H](C)O)[C@@H](C)O)[C@@H](C)CC)C(=O)N[C@@H](CCC(=O)O)C(=O)N[C@@H](Cc1c[nH]c2ccccc12)C(=O)N[C@@H](CC(C)C)C(=O)N[C@@H](CC(C)C)C(=O)N[C@@H](C)C(=O)NCC(=O)NCC(=O)N1CCC[C@H]1C(=O)N[C@@H](CO)C(=O)N[C@@H](CO)C(=O)NCC(=O)N[C@@H](C)C(=O)N1CCC[C@H]1C(=O)N1CCC[C@H]1C(=O)N1CCC[C@H]1C(=O)N[C@@H](CO)C(=O)O` [Compound 30] (H-Y[Aib]EGTFTSDYSILLEK([εLys-εLys-γGlu-C18 diacid])QAAHEFIEWLLAGGPSSGAPPPS-OH), in data set [1] (setting [4]), the EC50 worked out at 0.0032 nM. In data set [1] (setting [5]), it took 0.185 nM to reach a half-maximal effect (EC50). In data set [2] (setting [6]), the EC50 turned out to be 0.0073 nM. Moreover, the EC50 in data set [2] (setting [7]) turned out to be 0.267 nM. Further, in data set [3] (dog, in vivo, po), the AUC/Dose amounted to 6.5 kg·h/L, the Cmax/Dose worked out at 0.24 kg/L, the Tmax was determined as 0.8 h and the half-life is 3.38 days.

Take `CC[C@H](C)[C@H](NC(=O)[C@H](Cc1ccccc1)NC(=O)[C@H](CCC(=O)O)NC(=O)[C@H](CCCNC(=N)N)NC(=O)[C@H](C)NC(=O)[C@H](C)NC(=O)[C@H](CCC(N)=O)NC(=O)[C@H](CCCCNC(=O)COCCOCCNC(=O)COCCOCCNC(=O)CC[C@H](NC(=O)CCCCCCCCCCCCCCCCC(=O)O)C(=O)O)NC(=O)[C@H](CCC(=O)O)NC(=O)[C@H](CC(C)C)NC(=O)[C@H](CC(C)C)NC(=O)[C@@H](NC(=O)[C@H](CO)NC(=O)[C@H](Cc1ccc(O)cc1)NC(=O)[C@H](CC(=O)O)NC(=O)[C@H](CO)NC(=O)[C@@H](NC(=O)[C@H](Cc1ccccc1)NC(=O)[C@@H](NC(=O)CNC(=O)[C@H](CCC(=O)O)NC(=O)C(C)(C)NC(=O)[C@@H](N)Cc1ccc(O)cc1)[C@@H](C)O)[C@@H](C)O)[C@@H](C)CC)C(=O)N[C@@H](CCC(=O)O)C(=O)N[C@@H](Cc1c[nH]c2ccccc12)C(=O)N[C@@H](CC(C)C)C(=O)N[C@@H](CC(C)C)C(=O)N[C@@H](C)C(=O)NCC(=O)NCC(=O)N1CCC[C@H]1C(=O)N[C@@H](CO)C(=O)N[C@@H](CO)C(=O)NCC(=O)N[C@@H](C)C(=O)N1CCC[C@H]1C(=O)N1CCC[C@H]1C(=O)N1CCC[C@H]1C(=O)N[C@@H](CO)C(=O)O` [Compound 32] (H-Y[Aib]EGTFTSDYSILLEK([AEEA-AEEA-γGlu-C18 diacid])QAAREFIEWLLAGGPSSGAPPPS-OH): the EC50 in data set [1] (setting [4]) stood at 0.0071 nM. The compound also came in with an EC50 in data set [1] (setting [5]) of 0.679 nM. For the same compound, in data set [2] (setting [6]), the EC50 came out at 0.005 nM. Besides, the EC50 in data set [2] (setting [7]) is 0.982 nM. Moreover, in data set [3] (dog, in vivo, po), the AUC/Dose is on record as 25.3* kg * h/L, the Cmax/Dose is given as 0.45* kg/L, the Tmax was 1.8 h and the half-life was 3.33 days.

For the compound `CC[C@H](C)[C@H](NC(=O)[C@H](Cc1ccccc1)NC(=O)[C@H](CCC(=O)O)NC(=O)[C@H](CCCNC(=N)N)NC(=O)[C@H](C)NC(=O)[C@H](C)NC(=O)[C@H](CCC(N)=O)NC(=O)[C@H](CCC(=O)O)NC(=O)[C@H](CCC(=O)O)NC(=O)[C@H](CC(C)C)NC(=O)[C@H](CC(C)C)NC(=O)[C@H](CCCCNC(=O)[C@@H](N)CCCCNC(=O)[C@@H](N)CCCCNC(=O)CC[C@H](NC(=O)CCCCCCCCCCCCCCCCC(=O)O)C(=O)O)NC(=O)[C@H](CO)NC(=O)[C@H](Cc1ccc(O)cc1)NC(=O)[C@H](CC(=O)O)NC(=O)[C@H](CO)NC(=O)[C@@H](NC(=O)[C@H](Cc1ccccc1)NC(=O)[C@@H](NC(=O)CNC(=O)[C@H](CCC(=O)O)NC(=O)C(C)(C)NC(=O)[C@@H](N)Cc1ccc(O)cc1)[C@@H](C)O)[C@@H](C)O)C(=O)N[C@@H](CCC(=O)O)C(=O)N[C@@H](Cc1c[nH]c2ccccc12)C(=O)N[C@@H](CC(C)C)C(=O)N[C@@H](CC(C)C)C(=O)N[C@@H](C)C(=O)NCC(=O)NCC(=O)N1CCC[C@H]1C(=O)N[C@@H](CO)C(=O)N[C@@H](CO)C(=O)NCC(=O)N[C@@H](C)C(=O)N1CCC[C@H]1C(=O)N1CCC[C@H]1C(=O)N1CCC[C@H]1C(=O)N[C@@H](CO)C(=O)O` [Compound 40], the EC50 in data set [1] (setting [4]) was found to be 0.0095 nM; in data set [1] (setting [5]) it was 0.501 nM; in data set [2] (setting [6]), 0.0064 nM; in data set [2] (setting [7]), 0.334 nM. Besides, the AUC/Dose in data set [3] (dog, in vivo, po) came to 27.0 kg·h/L. This compound displayed a Cmax/Dose in data set [3] (dog, in vivo, po) of 0.48 kg/L. For the same compound, in data set [3] (dog, in vivo, po), the Tmax is 2 h. The half-life in data set [3] (dog, in vivo, po) is 2.54 days.

As for `CC[C@H](C)[C@H](NC(=O)[C@H](Cc1ccccc1)NC(=O)[C@H](CCC(=O)O)NC(=O)[C@H](CCCNC(=N)N)NC(=O)[C@H](C)NC(=O)[C@H](C)NC(=O)[C@H](CCC(N)=O)NC(=O)[C@H](CCC(=O)O)NC(=O)[C@H](CCC(=O)O)NC(=O)[C@H](CC(C)C)NC(=O)[C@H](CC(C)C)NC(=O)[C@@H](NC(=O)[C@H](CO)NC(=O)[C@H](Cc1ccc(O)cc1)NC(=O)[C@H](CC(=O)O)NC(=O)[C@H](CO)NC(=O)[C@@H](NC(=O)[C@H](Cc1ccccc1)NC(=O)[C@@H](NC(=O)CNC(=O)[C@H](CCC(=O)O)NC(=O)C(C)(C)NC(=O)[C@@H](N)Cc1ccc(O)cc1)[C@@H](C)O)[C@@H](C)O)[C@@H](C)CC)C(=O)N[C@@H](CCC(=O)O)C(=O)N[C@@H](Cc1c[nH]c2ccccc12)C(=O)N[C@@H](CC(C)C)C(=O)N[C@@H](CC(C)C)C(=O)N[C@@H](C)C(=O)NCC(=O)NCC(=O)N1CCC[C@H]1C(=O)N[C@@H](CO)C(=O)N[C@@H](CCCCNC(=O)[C@@H](N)CCCCNC(=O)[C@@H](N)CCCCNC(=O)CC[C@H](NC(=O)CCCCCCCCCCCCCCCCC(=O)O)C(=O)O)C(=O)NCC(=O)N[C@@H](C)C(=O)N1CCC[C@H]1C(=O)N1CCC[C@H]1C(=O)N1CCC[C@H]1C(=O)N[C@@H](CO)C(=O)O` [Compound 43] (H-Y[Aib]EGTFTSDYSILLEEQAAREFIEWLLAGGPSK([εLys-εLys-γGlu-C18 diacid])GAPPPS-OH), the EC50 in data set [1] (setting [4]) turned out to be 0.0056 nM; in data set [1] (setting [5]), 0.445 nM; in data set [2] (setting [6]), 0.004 nM; in data set [2] (setting [7]) it was 0.359 nM. In data set [3] (dog, in vivo, po), the Tmax was 1.5 h. The half-life in data set [3] (dog, in vivo, po) is 5.46 days. This compound also yielded an AUC/Dose in data set [3] (oral tablet, SNAC 300 mg, test substance 3 mg, Beagle dogs, arithmetic mean) of 21.4 kg·h/L.

The term EC50 denotes the concentration at which the effect is half-maximal. By Tmax is commonly meant the time from dosing to the highest level. One may read the half-life as the time in which the quantity being followed falls by half.
